Measured values: PMC13223435, “Synthesis and Antiproliferative Activity against Melanoma Cells of New Heterocyclic Hybrids Based on Pyridine and Pyrimidine Scaffolds” (Current Medicinal Chemistry, 2025)

Key:
melanoma A375 cells = experiment: WST-1 antiproliferative assay; format: cell-based; conditions: Homo sapiens, A-375; for activity at 10 µM: 48 h of treatment, A375, read-out: Cell proliferation (% control); for IC50: 48 hours of treatment
From the text: (§1) The A375 malignant melanoma cell line (ECACC 88113005, Salisbury, UK) was procured from the European Collection of Authenticated Cell Cultures (ECACC). The primary culture of human dermal fibroblasts (HDF) was derived from skin according to the protocol approved by the Ethical Committee of Pomeranian Medical University in Szczecin (KB-0012/02/18). The detailed protocol of fibroblast isolation, authentication, and cell culture conditions was previously described. Both cell lines were cultivated in a humidified incubator under conditions of 5% CO2 and a temperature of 37°C, using Dulbecco’s modified Eagle’s medium (DMEM) with 4500 mg/L glucose (Sigma-Aldrich Merck Group, St. Louis, MO, USA) enriched with 10% heat-inactivated fetal bovine serum (FBS, EURx, Gdańsk, Poland), 2 mM L-glutamine (Sigma-Aldrich Merck Group, St. Louis, MO, USA), and penicillin-streptomycin solution (Sigma-Aldrich Merck Group, St. Louis, MO, USA). Regular assessments for the presence of mycoplasma were conducted using the MycoAlert® Mycoplasma Detection Kit (Lonza, Rockland, ME, USA).
(§2) The evaluation of the antiproliferative activity of the compounds was performed using the Cell Proliferation Reagent WST-1 assay (Roche, Germany). This assay relies on the reduction of tetrazolium salt to formazan, with the final amount of formazan proportional to the number of viable cells. In our study, A375 cells (2×10^3) and HDF (3×10^3) were initially seeded into 96-well plates and cultured in a humidified atmosphere of 5% CO2 at 37°C. 24 hours later, the culture medium was replaced with a medium containing the tested compounds for a 48-hour incubation period at specified final concentrations. […] For control purposes, cells without the tested compounds, which contained only the vehicle (DMSO), were used. Additionally, a blank sample consisting of tested compounds in a medium (without cells) was included. After the 48-hour incubation period, the WST-1 reagent was introduced and allowed to incubate with the cells for 30 minutes. The absorbance was subsequently measured at 450 nm with background correction at 620 nm using a microplate reader (Infinite 200 Pro, Tecan, Männedorf, Switzerland). Cell viability was calculated according to the following formula: [(Atest–Ablank)/ (Acontrol − Ablank)] × 100%. These measurements were conducted in triplicate for at least three independent experiments.
In the screening step, 10 µM solutions of all 33 compounds were tested on A375 cells. […] Selected compounds (2c, 18e, 16b, 29) were tested at concentrations of 0.1, 1, 10, 50, and 100 µM. The IC50 values were determined using an online calculator (AAT Bioquest, Inc., Quest Graph™ IC50 Calculator (v.1). Retrieved from https://www.aatbio.com/tools/IC50-calculator-v1, accessed on: 2022, December 12).

A375 cells [1] = experiment: Live-cell imaging (time-lapse microscopy); format: cell-based; conditions: 5 µM, 48 h
Description: For live-cell imaging, A375 cells were seeded into 96-well plates at a density of 2×10^3 cells per well and allowed to grow for 24 h before imaging. Next, the cell culture medium was carefully removed, and new medium containing 16b (at 2 µM and 10 µM) and 29 (at 5 µM and 10 µM) was added and the cell culture plate was placed in the imaging chamber of Agilent BioTek Lionheart FX automated microscope (Agilent Technologies, Inc., Santa Clara, CA, USA) equipped with a Plan Fluorite 20x/0.75 objective (Olympus, Nishi-Shinjuki, Tokyo, Japan), and a FLIR Blackfly BFLY-U3-23S6M camera (Teledyne FLIR, Wilsonville, OR, USA). The temperature in the imaging chamber was set to 37°C and CO2 level to 5%. The bright-field images were acquired every 5 minutes for 48 hours.

tubulin = biological target: T1, tubulin (Sus scrofa, UniProt P02550+P02554); experiment: Cell free tubulin polymerization assay (fluorescence-based); format: biochemical
T1 construct: purchased Cytoskeleton, Denver, CO, USA
Description: The tubulin polymerization process was evaluated using a tubulin (>99% pure) and fluorescence-based tubulin polymerization kit (Cytoskeleton, Denver, CO, USA). The effects of compounds 16b and 29 (at final concentrations of 1, 10, 50, 100 µM) on tubulin polymerization were evaluated in cell-free conditions. Paclitaxel (PTX) and vinblastine (VBL) (3 µM) were used as references, and DMSO (0.2%) was used as the vehicle control. This assay tracks the process of tubulin polymerization through an increase in fluorescence resulting from the addition of a fluorescence reporter to microtubules as polymerization occurs. After incubating the tested compounds at 37°C for 1 minute, the icy tubulin reaction mixture (2 mg/mL tubulin, 1.0 mM GTP, 15% glycerol in buffer containing 80 mM PIPES, 2.0 mM MgCl2, 0.5 mM EGTA, pH 6.9, and 10 µM fluorescent reporter) was added to the samples, which were then mixed and monitored using a spectrophotometric microplate reader (Infinite 200 Pro, Tecan) at 1-minute intervals for 90 minutes at 37°C (excitation: 360 nm, emission: 450 nm). The software installed on the plate reader was used to compute the maximum slope (Vmax) of the growth phase, measured in RFU/min, as outlined in the manufacturer's instructions. Each polymerization curve's Vmax was then standardized against the control curve's Vmax. The IC50 values were determined using an online tool (AAT Bioquest, Inc., Quest Graph™ IC50 Calculator ((v.1). Retrieved from https://www.aatbio.com/tools/IC50-calculator-v1, accessed on: 2024, May 6).

A375 cells [2] = experiment: Annexin V-PE/7-AAD apoptosis assay (Muse); format: cell-based; conditions: 48 h, early and late apoptotic
Description: In this study, A375 cells were initially seeded into 24-well plates at a density of 1×10^4 cells per well. After 24 hours, the cell culture medium was carefully removed, and a new medium containing 16b and 29 at varying final concentrations (1, 5, and 10 µM) was added, followed by an additional 48-hour incubation. Cells in a medium containing 0.2% DMSO served as the control group. After the treatment period, cells were washed with phosphate-buffered saline (PBS), and both the cell medium and PBS wash were retained. The cells were then detached using trypsin and centrifuged. The resulting cell pellet was suspended in a fresh medium after discarding the supernatant. An equivalent volume of Muse Annexin V & Dead Cell Reagent (Luminex Corporation, Austin, TX, USA) was added and thoroughly mixed through repeated pipetting. The staining procedure was conducted for 20 minutes at room temperature in the absence of light. The Muse Cell Analyzer (Luminex Corporation, Austin, TX, USA) was utilized for analysis. This assay detects phosphatidylserine (PS) on apoptotic cell surfaces using annexin V-PE (phycoerythrin) binding. A 7-AAD (7-aminoactinomycin D) marker was used to assess cell membrane integrity. The dual staining approach enabled the identification of four distinct cell groups: viable (Annexin V-PE− and 7-AAD−), early apoptotic (Annexin V-PE+ and 7-AAD−), late apoptotic/dead (Annexin V-PE+ and 7-AAD+), and primarily nuclear debris (Annexin V-PE− and 7-AAD+). The findings were based on at least three separate experimental runs.

[3] = tested on: human dermal fibroblasts (HDF); experiment: WST-1 assay on non-tumor cells (selectivity); format: cell-based
From the text: as §1, §2
(§3) For that purpose, non-tumor HDF cells were used and the concentrations of tested compounds were increased to 200 µM (0.4% DMSO) and 500 µM (1% DMSO). Appropriate controls were prepared for higher concentrations of DMSO.

[4] = WST-1 assay on non-tumor cells (selectivity); format: cell-based, human; conditions: human, primary human dermal fibroblasts (HDF); at 500 µM
From the text: as §1, §2, §3

T1 sequence (P02554 whole entry): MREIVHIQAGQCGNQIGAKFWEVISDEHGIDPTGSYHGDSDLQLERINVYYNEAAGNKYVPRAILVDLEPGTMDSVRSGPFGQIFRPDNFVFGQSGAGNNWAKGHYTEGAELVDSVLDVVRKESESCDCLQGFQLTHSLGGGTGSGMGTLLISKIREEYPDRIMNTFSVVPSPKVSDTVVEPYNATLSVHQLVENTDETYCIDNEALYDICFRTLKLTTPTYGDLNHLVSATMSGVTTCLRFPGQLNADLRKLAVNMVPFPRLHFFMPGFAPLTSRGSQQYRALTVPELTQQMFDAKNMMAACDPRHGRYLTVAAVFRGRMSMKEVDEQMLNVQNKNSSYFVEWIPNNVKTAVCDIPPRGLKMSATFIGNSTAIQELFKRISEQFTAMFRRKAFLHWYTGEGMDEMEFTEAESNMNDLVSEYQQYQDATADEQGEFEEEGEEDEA
T1 sequence (P02550 whole entry): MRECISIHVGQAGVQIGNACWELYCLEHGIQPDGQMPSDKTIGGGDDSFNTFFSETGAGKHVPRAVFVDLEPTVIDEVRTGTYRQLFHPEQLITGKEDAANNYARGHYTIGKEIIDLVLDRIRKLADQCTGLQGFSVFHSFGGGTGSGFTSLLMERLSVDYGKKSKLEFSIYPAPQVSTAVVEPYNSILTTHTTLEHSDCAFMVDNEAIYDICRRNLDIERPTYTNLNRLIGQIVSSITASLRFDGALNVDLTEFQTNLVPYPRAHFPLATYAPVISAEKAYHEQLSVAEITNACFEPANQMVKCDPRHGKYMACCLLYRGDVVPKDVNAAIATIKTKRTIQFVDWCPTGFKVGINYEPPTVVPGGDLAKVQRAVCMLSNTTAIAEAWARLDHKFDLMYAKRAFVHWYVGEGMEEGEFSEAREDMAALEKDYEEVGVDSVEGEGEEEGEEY

## O=c1ccc(-c2csc3ccccc23)c[nH]1 [Compound 12a]
Melanoma A375 cells
  activity at 10 µM: 106 ± 6.52%

## O=c1ccc(-c2cccc3sccc23)c[nH]1 [Compound 12b]
Melanoma A375 cells
  activity at 10 µM: 97.8 ± 6.41%

## S=c1ccc(-c2csc3ccccc23)c[nH]1 [Compound 13a]
Melanoma A375 cells
  activity at 10 µM: 100 ± 3.65%

## S=c1ccc(-c2cccc3sccc23)c[nH]1 [Compound 13b]
Melanoma A375 cells
  activity at 10 µM: 77.5 ± 13.1%

## S=c1ccc(-c2cccs2)cn1Cc1ccc2c(c1)OCO2 [Compound 16a]
Melanoma A375 cells
  activity at 10 µM: 99.1 ± 3.1%

## S=C1CC=C(c2cccs2)C(Cc2ccccc2)N1CC1CC1 (stereo not drawn) [Compound 17c]
Melanoma A375 cells
  activity at 10 µM: 117 ± 2.07%

## S=C1CC=C(c2ccco2)C(Cc2ccccc2)N1CC1CC1 (stereo not drawn) [Compound 17d]
Melanoma A375 cells
  activity at 10 µM: 98.7 ± 1.41%

## S=C1CC(Cc2ccccc2)C(c2ccco2)=CN1 (stereo not drawn) [Compound 18e]
Melanoma A375 cells
  activity at 10 µM: 51.4 ± 18.5%
  IC50: 10.1 ± 0.75 µM

## O=C1CC(Cc2ccccc2)C(C(=O)N2CCOCC2)=CN1 (stereo not drawn) [Compound 21]
Melanoma A375 cells
  activity at 10 µM: 117 ± 13%

## Cn1c(CC2C=CN(c3ccccc3)C(=O)C2)cc2ccccc21 (stereo not drawn) [Compound 23a]
Melanoma A375 cells
  activity at 10 µM: 67.6 ± 13.3%

## Cn1c(CC2C=CN(c3ccccc3)C(=S)C2)cc2ccccc21 (stereo not drawn) [Compound 23b]
Melanoma A375 cells
  activity at 10 µM: 81.4 ± 14.9%

## Cn1c(CC2C=CCC(=O)N2c2ccccc2)cc2ccccc21 (stereo not drawn) [Compound 24a]
Melanoma A375 cells
  activity at 10 µM: 107 ± 14.2%

## O=C1CC(Cc2nc3ccccc3o2)C=CN1c1ccccc1 (stereo not drawn) [Compound 25a]
Melanoma A375 cells
  activity at 10 µM: 104 ± 1.5%

## S=C1CC(Cc2nc3ccccc3o2)C=CN1c1ccccc1 (stereo not drawn) [Compound 25b]
Melanoma A375 cells
  activity at 10 µM: 88.9 ± 8.81%

## CN1C=C(c2ccccc2)[C@@H](c2ccccc2)[C@H](C(=O)c2ccccc2)C1=S [Compound 29]
A375 cells [1]
  time-lapse observation of A375 cells: more normal cells in the field of view than in the case of the same concentration of 16b
tubulin; Vmax normalised to control, read-out: tubulin polymerization inhibition IC50
  IC50: > 100 µM
tubulin; all tested concentrations (1-100 µM)
  effect on tubulin polymerization: not interacting with tubulin
A375 cells [2]; 5 µM
  percentage of annexin-positive cells: 8.28 ± 1.80%
A375 cells [2]; 10 µM
  percentage of annexin-positive cells: 21.38 ± 1.55%
Melanoma A375 cells
  activity at 10 µM: 24.7 ± 4.73%
  IC50: 4.85 ± 1.67 µM
[3]; Fibroblast, 48 hours of treatment, normal human dermal fibroblasts
  IC50: > 500 µM
[3]; IC50 normal cells (HDF)/IC50 cancer cell (A375)
  Selectivity index (SI): > 100
[4]
  viability at 48 h, 500 µM: 85.9 ± 7.47%

## CC(=O)O[C@H]1C(=O)[C@@]2(C)[C@H]([C@H](OC(=O)c3ccccc3)[C@]3(O)C[C@H](OC(=O)[C@H](O)[C@@H](NC(=O)c4ccccc4)c4ccccc4)C(C)=C1C3(C)C)[C@]1(OC(C)=O)CO[C@@H]1C[C@@H]2O [PTX, Paclitaxel, reference compound]
tubulin; 3 µM
  effect on tubulin polymerization: reduced the duration of the nucleation phase and increased the Vmax

## CC[C@]1(O)C[C@@H]2CN(CCc3c([nH]c4ccccc34)[C@@](C(=O)OC)(c3cc4c(cc3OC)N(C)[C@H]3[C@@](O)(C(=O)OC)[C@H](OC(C)=O)[C@]5(CC)C=CCN6CC[C@]43[C@@H]65)C2)C1 [VBL, vinblastine, reference compound]
tubulin; 3 µM
  effect on tubulin polymerization: suppressed tubulin polymerization, resulting in decreased Vmax and reduced final polymer mass of protein
